Test results as given in patent US20250206780A1, “CYCLIC PEPTIDES AND THEIR USE FOR THE TREATMENT OF DISEASES ASSOCIATED WITH DICARBONYLS LIKE METHYLGLYOXAL” (UNIVERSITÄT HEIDELBERG, priority 2022, published 2025).
Starred links: 1 amine or outer side, 2 acyl side, 3 side chain; linkers in the order of their positions; H or OH if unused. Positions of bridges follow the written chain, without caps; N, C: chain ends. Residues, ends and D or L forms follow the SMILES beside them. Groups on a side chain read outwards from the residue. *: point of attachment. d(γGlu) = O=C(O)[C@@H](CCC(=O)[*:2])N[*:1]; C16 diacid = O=C(O)CCCCCCCCCCCCCCC(=O)*; Dap = NC[C@H](N)C(=O)O

What was measured:
[1] = set-up: species or system mice; conditions: mouse, in vivo
Description: Animals were injected with Dap3 and blood was collected into EDTA containing tubes at indicated time points with n=3 per time point. After centrifugation EDTA plasma was stored at −80° C. until analysis. Dap3 was quantified by LC MS/MS as described in section 6.
6. Detection of Dap3 and MG-Modified Dap3 by LC-MS/MS A Dap3-MG standard was prepared by incubation of Dap3 with methylglyoxal in 0.1 M phosphate buffer followed by purification by preparative HPLC. The peptide CycK(e-Hdd)R4E was employed as internal standard which was added to the standard curve and plasma samples prior to precipitation. Prior to analysis 2 parts acetonitrile were added to the plasma, vortexed and centrifuged for 10 min at 13,000 g. The supernatant was analysed using an ACQUITY UPLC I fitted with a Acquity UPLC BEH C18 column (Waters, 2.1 mm*100 mm, […]) with a pre-column (2.1×5 mm, 1.7 μm) and a Xevo TQ-XS mass spectrometer (Waters, USA). Solvent A was water+0.1% formic acid and solvent B was acetonitrile+0.1% formic acid. A linear gradient from 0-100% solvent B at a flow rate of 0.2 ml/min over 20 min and a column temperature of 30° C. was used. The detailed parameters for the quantification of Dap3, Dap3-MG and CycK(e-Hdd)R4E, are described below

[2] = Bowman et al., 1996; cited from earlier work

Row | plasma half-life [1] | SMILES | half-life [2]
1 | long plasma half-life | NC[C@H](N)C(=O)NCCCC[C@@H]1NC(=O)[C@H](CCCCNC(=O)[C@@H](N)CN)NC(=O)[C@H](CCC(=O)O)NC(=O)[C@H](CCCCNC(=O)[C@@H](N)CN)NC(=O)[C@H](CCCCNC(=O)CC[C@@H](NC(=O)CCCCCCCCCCCCCCC(=O)O)C(=O)O)NC(=O)CC[C@@H](C(=O)O)NC1=O [Dap3] (K([d(γGlu)-C16 diacid])K(Dap)EK(Dap)K(Dap)E-OH; lactam N-6) | –
2 | – | N=C(N)NN [Aminoguanidine] | very short
